# Measurements published in patent EP0745595A1, “3-(3-Aryloxyphenyl)-1-(substituted methyl)-s-triazine-2,4,6-oxo or thiotrione herbicidal agents” (American Cyanamid Company, priority 1995, dated 1996).
# What was measured:
# Format in all cases: in vivo
# [1] = system: CYPERUS SEROTINUS, ROTTB.; test: Preemergence weed control under flooded paddy conditions, CYPSE (Flatsedge); settings: preemergence, 3-4 weeks after treatment
# Experimental: (§1) Results of herbicide evaluation are expressed on a rating scale (0-9). The scale is based upon a visual observation of plant stand, vigor, malformation, size, chlorosis and overall plant appearance as compared with a control.
# (§2) Preemergence herbicidal activity under flooded paddy conditions is determined as follows: plant seeds or propagating organs are planted in the top 0.5 cm of silt loam soil in 32 oz. plastic containers with a diameter of 10.5 cm and no drainage holes. Water is added to these containers and maintained at 1.5 to 3 cm above the soil surface for the duration of the experiment. […] The treated containers are placed on greenhouse benches and cared for according to normal greenhouse procedures.- Three to four weeks after treatment the test is terminated and each container is examined and herbicidal effect rated according to the rating system provided in Example 40. The compounds evaluated are reported by compound number given in Example 40.
# (§3) Plant species employed in this example are reported by header abbreviation, common name and scientific name.
# [2] = system: ORYZA SATIVA, L. TEBONNET; test: Rice tolerance to post-transplant applications under flooded paddy conditions, ORYSAT (Rice, Tebonnet); settings: post-transplant rice, 3-4 weeks after treatment
# Procedure, shortened: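 Greenhouse pots of silt loam, each with two transplanted ten-day-old seedlings, are held under 1.5 to 3 cm of standing water. Three days later the compound is applied to the flooded surface at about 0.5, 0.25, 0.125 or 0.063 kg/ha. Damage is scored visually 0-9 after 3-4 weeks.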
# SAGITTARIA PYGMAEA, L. = test: Preemergence weed control under flooded paddy conditions, SAGPY (Arrowhead (Pygmaea)); settings: preemergence, 3-4 weeks after treatment
# Procedure, shortened: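 In undrained pots of silt loam flooded to 1.5-3 cm, compounds are pipetted into the water before emergence at the equivalent of about 0.5, 0.25, 0.125 and 0.063 kg/ha. Plants are scored 0-9 for stand, vigor, malformation, size and chlorosis at test end (3-4 weeks).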
# [3] = system: ECHINOCHLOA ORYZOIDES (ARD.)FRITSCH; test: Preemergence weed control under flooded paddy conditions, ECHORC (Watergrass (Calif.)); settings: preemergence, 3-4 weeks after treatment
# Experimental: as §1, §2, §3
# CYPERUS IRIA = test: Preemergence weed control under flooded paddy conditions, CYPIR (Rice Flatsedge); settings: preemergence, 3-4 weeks after treatment
# Experimental: as §1, §2, §3
# […], PRESL. = Preemergence weed control under flooded paddy conditions, MOOVA (Monochoria); settings: preemergence, 3-4 weeks after treatment
# Experimental: as §1
# Preemergence herbicidal activity under flooded paddy conditions is determined as follows: plant seeds or propagating organs are planted in the top 0.5 cm of silt loam soil in 32 oz. plastic containers with a diameter of 10.5 cm and no drainage holes. Water is added to these containers and maintained at 1.5 to 3 cm above the soil surface for the duration of the experiment. The test compounds are applied as aqueous/acetone mixtures 50/50 v/v pipetted directly into the flood water to give the equivalent of about 0.5, 0.25, 0.125 and 0.063 kg/ha of active ingredient. The treated containers are placed on greenhouse benches and cared for according to normal greenhouse procedures.- Three to four weeks after treatment the test is terminated and each container is examined and herbicidal effect rated according to the rating system provided in Example 40. The compounds evaluated are reported by compound number given in Example 40.
# as §3
# [4] = system: ABUTILON THEOPHRASTI, MEDIC.; test: Postemergence herbicidal evaluation, ABUTH (Velvetleaf)
# Procedure, shortened: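 This postemergence herbicide test used two-week-old velvetleaf seedlings grown in jiffy flats. Each compound was sprayed at 40 psi as a dispersion in 50/50 acetone/water with 0.5% TWEEN®20 surfactant. Plants then received routine greenhouse care. After four to five weeks, injury was scored visually on a 0-9 scale against a control, and replicate tests were averaged.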
# [5] = system: GLYCINE MAX(L) MERR. CV. WILLIAMS; test: Postemergence herbicidal evaluation, GLXMAW (Soybean, Williams); set-up: key to GLXMAW rating / Herbicidal effect rating, GLXMAW / GLXMAW: 0-9 visual rating scale vs untreated control
# Experimental: (§4) In the tests, seedling plants are grown in jiffy flats for about two weeks. The test compounds are dispersed in 50/50 acetone/water mixtures containing 0.5% TWEEN®20, a polyoxyethylene sorbitan monolaurate surfactant of Atlas Chemical Industries, in sufficient quantities to provide the equivalent of about 0.125 kg to 0.500 kg per hectare of active compound when applied to the plants through a spray nozzle operating at 40 psi for a predetermined time. After spraying, the plants are placed on greenhouse benches and are cared for in the usual manner, commensurate with conventional greenhouse practices. From four to five weeks after treatment, the seedling plants are examined and rated according to the rating system set forth below. Where more than one test is involved for a given compound, the data are averaged.
# (§5) Plant species employed in these evaluations are reported by header abbreviation, common name and scientific name.
# as §1
# [6] = system: SETARIA VIRIDIS, (L) BEAU; test: Postemergence herbicidal evaluation, SETVI (Foxtail, Green); set-up: key to SETVI rating / Herbicidal effect rating, SETVI / SETVI: 0-9 visual rating scale vs untreated control
# Experimental: as §4, §5, §1
# CHENOPODIUM ALBUM, L. = test: Postemergence herbicidal evaluation, CHEAL (Lambsquarters, Common)
# Experimental: as §4, with “in sufficient quantities to provide the equivalent of about 0.125 kg to 0.500 kg per hectare of active compound when applied” left out
# as §5, §1
# CASSIA OBTUSIFOLIA, L. = test: Postemergence herbicidal evaluation, CASOB (Sicklepod); set-up: key to CASOB rating / Herbicidal effect rating, CASOB / CASOB: 0-9 visual rating scale vs untreated control
# Experimental: as §4, §5, §1
# IPOMOEA SPP. = test: Postemergence herbicidal evaluation, IPOSS (Morningglory spp.)
# Procedure, shortened: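 In this greenhouse postemergence herbicide test on Ipomoea spp. (morningglory), compounds in 50/50 acetone/water with 0.5% TWEEN®20 were sprayed at 40 psi onto seedlings about two weeks old grown in jiffy flats. After four to five weeks, injury was scored on a 0-9 scale covering stand, vigor, malformation, size, chlorosis and overall appearance versus control, with repeat tests averaged.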
# [7] = system: ECHINOCHLOA CRUS-GALLI, (L) BEAU; test: Postemergence herbicidal evaluation, ECHCG (Barnyardgrass); set-up: key to ECHCG rating / Herbicidal effect rating, ECHCG / ECHCG: 0-9 visual rating scale vs untreated control
# Experimental: as §4, §5, §1
# GALIUM APARINE = test: Postemergence herbicidal evaluation, GALAP (Galium); set-up: key to GALAP rating / Herbicidal effect rating, GALAP / GALAP: 0-9 visual rating scale vs untreated control
# Experimental: as §4, §5, §1
# [8] = system: AMBROSIA ARTEMISIIFOLIA, L.; test: Postemergence herbicidal evaluation, AMBEL (Ragweed, Common)
# Experimental: as §4, with “in sufficient quantities to provide the equivalent of about 0.125 kg to 0.500 kg per hectare of active compound when applied” left out
# as §5, §1
smiles,measurement,setting,value
"C=CCn1c(=O)n(CC(=O)OCC)c(=O)n(-c2cc(Oc3ccc(C(F)(F)F)cc3Cl)ccc2[N+](=O)[O-])c1=O [Compound 13, Ethyl 3-allyl-5-{5-[(2-chloro-α,α,α-tri-fluoro-p-tolyl)oxy]-2-nitrophenyl}tetra-hydro-2,4,6-trioxo-s-triazine-1(2H)-acetate]","Herbicidal effect rating, CYPSE",[1]; 0.063 kg/ha,0.0
same,"Herbicidal effect rating, CYPSE",[1]; 0.125 kg/ha,0.0
same,"Herbicidal effect rating, CYPSE",[1]; 0.250 kg/ha,0.0
same,"Herbicidal effect rating, CYPSE",[1]; 0.500 kg/ha,0.0
same,"Herbicidal effect rating, ORYSAT",[2]; 0.063 kg/ha,2.0
same,"Herbicidal effect rating, ORYSAT",[2]; 0.125 kg/ha,2.0
same,"Herbicidal effect rating, ORYSAT",[2]; 0.250 kg/ha,3.0
same,"Herbicidal effect rating, ORYSAT",[2]; 0.500 kg/ha,3.0
same,"Herbicidal effect rating, SAGPY","SAGITTARIA PYGMAEA, L.; 0.063 kg/ha",0.0
same,"Herbicidal effect rating, SAGPY","SAGITTARIA PYGMAEA, L.; 0.125 kg/ha",0.0
same,"Herbicidal effect rating, SAGPY","SAGITTARIA PYGMAEA, L.; 0.250 kg/ha",0.0
same,"Herbicidal effect rating, SAGPY","SAGITTARIA PYGMAEA, L.; 0.500 kg/ha",0.0
same,"Herbicidal effect rating, ECHORC",[3]; 0.063 kg/ha,9.0
same,"Herbicidal effect rating, ECHORC",[3]; 0.125 kg/ha,9.0
same,"Herbicidal effect rating, ECHORC",[3]; 0.250 kg/ha,9.0
same,"Herbicidal effect rating, ECHORC",[3]; 0.500 kg/ha,9.0
same,"Herbicidal effect rating, CYPIR",CYPERUS IRIA; 0.063 kg/ha,9.0
same,"Herbicidal effect rating, CYPIR",CYPERUS IRIA; 0.125 kg/ha,9.0
same,"Herbicidal effect rating, CYPIR",CYPERUS IRIA; 0.250 kg/ha,9.0
same,"Herbicidal effect rating, CYPIR",CYPERUS IRIA; 0.500 kg/ha,9.0
same,"Herbicidal effect rating, MOOVA","[…], PRESL.; 0.063 kg/ha",9.0
same,"Herbicidal effect rating, MOOVA","[…], PRESL.; 0.125 kg/ha",9.0
same,"Herbicidal effect rating, MOOVA","[…], PRESL.; 0.250 kg/ha",9.0
same,"Herbicidal effect rating, MOOVA","[…], PRESL.; 0.500 kg/ha",9.0
"COC(=O)Cn1c(=O)n(C)c(=O)n(-c2cc(Oc3cc(Cl)cc(Cl)c3Cl)ccc2[N+](=O)[O-])c1=O [Compound 25, Methyl 3-[2-nitro-5-(2,3,5-trichloro-phenoxy)phenyl]tetrahydro-5-methyl-2,4,6-trioxo-s-triazine-1(2H)-acetate]",ABUTH rating,[4]; Rate 0.125 kg/ha,0.0
same,ABUTH rating,[4]; Rate 0.250 kg/ha,0.0
same,ABUTH rating,[4]; Rate 0.500 kg/ha,0.0
same,"Herbicidal effect rating, CYPSE",[1]; 0.500 kg/ha,0.0
same,"Herbicidal effect rating, ORYSAT",[2]; 0.500 kg/ha,0.0
same,GLXMAW rating,[5]; Rate 0.125 kg/ha,0.0
same,GLXMAW rating,[5]; Rate 0.250 kg/ha,0.0
same,GLXMAW rating,[5]; Rate 0.500 kg/ha,0.0
same,SETVI rating,[6]; Rate 0.125 kg/ha,0.0
same,SETVI rating,[6]; Rate 0.250 kg/ha,0.0
same,SETVI rating,[6]; Rate 0.500 kg/ha,0.0
same,CHEAL rating,"CHENOPODIUM ALBUM, L.; Rate 0.125 kg/ha",0.0
same,CHEAL rating,"CHENOPODIUM ALBUM, L.; Rate 0.250 kg/ha",0.0
same,CHEAL rating,"CHENOPODIUM ALBUM, L.; Rate 0.500 kg/ha",0.0
same,"Herbicidal effect rating, SAGPY","SAGITTARIA PYGMAEA, L.; 0.500 kg/ha",0.0
same,"Herbicidal effect rating, ECHORC",[3]; 0.500 kg/ha,0.0
same,CASOB rating,"CASSIA OBTUSIFOLIA, L.; Rate 0.125 kg/ha",0.0
same,CASOB rating,"CASSIA OBTUSIFOLIA, L.; Rate 0.250 kg/ha",0.0
same,CASOB rating,"CASSIA OBTUSIFOLIA, L.; Rate 0.500 kg/ha",0.0
same,IPOSS rating,IPOMOEA SPP.; Rate 0.125 kg/ha,0.0
same,IPOSS rating,IPOMOEA SPP.; Rate 0.250 kg/ha,0.0
same,IPOSS rating,IPOMOEA SPP.; Rate 0.500 kg/ha,0.0
same,ECHCG rating,[7]; Rate 0.125 kg/ha,0.0
same,ECHCG rating,[7]; Rate 0.250 kg/ha,0.0
same,ECHCG rating,[7]; Rate 0.500 kg/ha,0.0
same,GALAP rating,GALIUM APARINE; Rate 0.125 kg/ha,0.0
same,GALAP rating,GALIUM APARINE; Rate 0.250 kg/ha,0.0
same,GALAP rating,GALIUM APARINE; Rate 0.500 kg/ha,0.0
same,"Herbicidal effect rating, CYPIR",CYPERUS IRIA; 0.500 kg/ha,0.0
same,"Herbicidal effect rating, MOOVA","[…], PRESL.; 0.500 kg/ha",0.0
same,AMBEL rating,[8]; Rate 0.125 kg/ha,0.0
same,AMBEL rating,[8]; Rate 0.250 kg/ha,0.0
same,AMBEL rating,[8]; Rate 0.500 kg/ha,0.0
